From ChEMBL document CHEMBL1136211, “Design of quinolinedione-based geldanamycin analogues” (2003)

What was measured:
Assay type in all cases: functional
[1] = system: Cancer cell lines; test: Concentration required to inhibit total growth of cells in 60 cancer cell lines; details: read-out: Log TGI (converted)
[2] = system: Cancer cell lines; test: Concentration required to kill cells
[3] = system: Cancer cell lines; test: Concentration required to inhibit growth of cells in 60 cancer cell lines

O=C1C(NCCCl)=CC(=O)c2nc(-c3ccccc3)ccc21
TGI [1]: 324 nM | LC50 [2]: 2040 nM | GI50 [3]: 27.5 nM

O=C1C=C(N2CC2)C(=O)c2nc(-c3ccccc3)ccc21
TGI [1]: 1780 nM | LC50 [2]: 11200 nM | GI50 [3]: 263 nM

O=C1C=C(N2CC2)C(=O)c2nc(-c3ccc4ccccc4c3)ccc21
TGI [1]: 10700 nM | LC50 [2]: 40700 nM | GI50 [3]: 3470 nM

O=C1C(N2CC2)=CC(=O)c2nc(-c3ccc4ccccc4c3)ccc21
TGI [1]: 1070 nM | LC50 [2]: 5620 nM | GI50 [3]: 204 nM

O=C1C(N2CC2)=CC(=O)c2nc(-c3ccccc3)ccc21
TGI [1]: 513 nM | LC50 [2]: 4070 nM | GI50 [3]: 52.5 nM

O=C1C(N2CC2)=CC(=O)c2nc(-c3ccccn3)ccc21
TGI [1]: 2450 nM | LC50 [2]: 9770 nM | GI50 [3]: 646 nM

O=C1/C(=N/CCO)C=C(O)c2nc(-c3ccccc3)ccc21
TGI [1]: 20000 nM | LC50 [2]: 60300 nM | GI50 [3]: 2950 nM
